Laboratory results from patent US12023360B2, “Composition and methods of screening” (OPTIBIOTIX LIMITED, priority 2013, dated 2024).

Legend:
Assay type in all cases: cell-based
[1] = test system: Bacteroides; experiment: Anaerobic culture utilisation, FISH enumeration at 24 h: Bacteroides; details: inoculum 7.98
Protocol: (§1) In these experiments, anaerobic cultures were tested to evaluate the in vitro utilisation of a novel Lactobacillus reuteri galactooligosaccharide by monitoring the populations of gut bacterial groups at 24 hours using fluorescent in situ hybridisation, and short-chain fatty acid (SCFA). Fructooligosaccharides (FOS), melibiose and raffinose were used as reference carbohydrates.

[2] = test system: Clostridia; experiment: Anaerobic culture utilisation, FISH enumeration at 24 h: Clostridia; details: inoculum 7.55
Protocol: as §1

[3] = test system: Bifidobacteria; experiment: Anaerobic culture utilisation, FISH enumeration at 24 h: Bifidobacteria; details: inoculum 6.85
Protocol: as §1

[4] = test system: Eubacteria; experiment: Anaerobic culture utilisation, FISH enumeration at 24 h: Eubacteria; details: inoculum 8.06
Protocol: as §1

[5] = test system: Lactobacilli; experiment: Anaerobic culture utilisation, FISH enumeration at 24 h: Lactobacilli; details: inoculum 7.15
Protocol: as §1

[6] = test system: E. coli; experiment: Anaerobic culture utilisation, FISH enumeration at 24 h: E. coli; details: inoculum 8.14
Protocol: as §1

Structure (SMILES)	Bacteroides, 24 [1]	Clostridia, 24 [2]	Bifidobacteria, 24 [3]	Eubacteria, 24 [4]	Lactobacilli, 24 [5]	E. coli, 24 [6]
OC[C@H]1O[C@H](OCC2O[C@@H](O)[C@H](O)[C@@H](O)[C@@H]2O)[C@H](O)[C@@H](O)[C@H]1O (stereo partly shown) [Melibiose, melibiose]	7.9	7.65	7.33	7.84	7.43	7.66
OC[C@H]1O[C@H](OC[C@H]2O[C@H](O[C@]3(CO)O[C@H](CO)[C@@H](O)[C@@H]3O)[C@H](O)[C@@H](O)[C@@H]2O)[C@H](O)[C@@H](O)[C@H]1O [Raffinose, raffinose]		7.81				
